Test results: the NIST ThermoML archive (doi:10.1021/acs.jced.7b00712)
± gives the expanded uncertainty stated by the source.

Conditions: Brillouin light scattering

CC(C)CC(C)(C)C [2,2,4-trimethylpentane]
speed of sound (294.06 K, 100 kPa, Liquid): 1099.7 ± 14 m/s
speed of sound (294.37 K, 3000 kPa, Liquid): 1127.4 ± 15 m/s
speed of sound (294.65 K, 6000 kPa, Liquid): 1147.6 ± 15 m/s
speed of sound (294.84 K, 10000 kPa, Liquid): 1176.1 ± 15 m/s
speed of sound (294.97 K, 12000 kPa, Liquid): 1181.7 ± 15 m/s
speed of sound (304.03 K, 100 kPa, Liquid): 1058.5 ± 14 m/s
speed of sound (304.16 K, 3000 kPa, Liquid): 1088.2 ± 14 m/s
speed of sound (304.23 K, 6000 kPa, Liquid): 1109.6 ± 14 m/s
speed of sound (304.27 K, 10000 kPa, Liquid): 1136.9 ± 15 m/s
speed of sound (304.27 K, 12000 kPa, Liquid): 1147.7 ± 15 m/s
speed of sound (313.81 K, 100 kPa, Liquid): 1017.3 ± 13 m/s
speed of sound (313.82 K, 10000 kPa, Liquid): 1100.1 ± 14 m/s
speed of sound (313.85 K, 12000 kPa, Liquid): 1110.8 ± 14 m/s
speed of sound (313.92 K, 3000 kPa, Liquid): 1037.2 ± 14 m/s
speed of sound (313.96 K, 6000 kPa, Liquid): 1065.2 ± 14 m/s
speed of sound (323.56 K, 100 kPa, Liquid): 978.2 ± 13 m/s
speed of sound (323.61 K, 3000 kPa, Liquid): 999.1 ± 13 m/s
speed of sound (323.65 K, 6000 kPa, Liquid): 1027.4 ± 13 m/s
speed of sound (323.67 K, 10000 kPa, Liquid): 1060.4 ± 14 m/s
speed of sound (323.71 K, 12000 kPa, Liquid): 1075.4 ± 14 m/s
speed of sound (333.4 K, 12000 kPa, Liquid): 1041.9 ± 14 m/s
speed of sound (333.42 K, 100 kPa, Liquid): 938.5 ± 12 m/s
speed of sound (333.46 K, 10000 kPa, Liquid): 1028 ± 13 m/s
speed of sound (333.48 K, 3000 kPa, Liquid): 968 ± 13 m/s
speed of sound (333.5 K, 6000 kPa, Liquid): 996 ± 13 m/s
speed of sound (342.88 K, 100 kPa, Liquid): 898 ± 12 m/s
speed of sound (343.07 K, 3000 kPa, Liquid): 927.9 ± 12 m/s
speed of sound (343.16 K, 6000 kPa, Liquid): 954.8 ± 12 m/s
speed of sound (343.21 K, 12000 kPa, Liquid): 1008.5 ± 13 m/s
speed of sound (343.22 K, 10000 kPa, Liquid): 990.3 ± 13 m/s
speed of sound (352.86 K, 100 kPa, Liquid): 858.9 ± 11 m/s
speed of sound (352.89 K, 3000 kPa, Liquid): 891.7 ± 12 m/s
speed of sound (352.94 K, 6000 kPa, Liquid): 921.1 ± 12 m/s
speed of sound (353.01 K, 10000 kPa, Liquid): 961.7 ± 12 m/s
speed of sound (353.04 K, 12000 kPa, Liquid): 975.5 ± 13 m/s
speed of sound (363.39 K, 3000 kPa, Liquid): 852.2 ± 11 m/s
speed of sound (363.49 K, 6000 kPa, Liquid): 883.5 ± 12 m/s
speed of sound (363.54 K, 10000 kPa, Liquid): 925.7 ± 12 m/s
speed of sound (363.55 K, 100 kPa, Liquid): 821.9 ± 11 m/s
speed of sound (363.58 K, 12000 kPa, Liquid): 943.8 ± 12 m/s
speed of sound (373.04 K, 3000 kPa, Liquid): 821.1 ± 11 m/s
speed of sound (373.27 K, 6000 kPa, Liquid): 843.9 ± 11 m/s
speed of sound (373.41 K, 10000 kPa, Liquid): 888.2 ± 12 m/s
speed of sound (373.49 K, 12000 kPa, Liquid): 908.6 ± 12 m/s
speed of sound (383.18 K, 3000 kPa, Liquid): 783.2 ± 10 m/s
speed of sound (383.8 K, 6000 kPa, Liquid): 813.8 ± 11 m/s
speed of sound (384.11 K, 10000 kPa, Liquid): 855.6 ± 11 m/s
speed of sound (384.26 K, 12000 kPa, Liquid): 876.5 ± 11 m/s
speed of sound (393.83 K, 3000 kPa, Liquid): 742.3 ± 9.7 m/s
speed of sound (394 K, 6000 kPa, Liquid): 782.2 ± 10 m/s
speed of sound (394.15 K, 10000 kPa, Liquid): 825.8 ± 11 m/s
speed of sound (394.19 K, 12000 kPa, Liquid): 848.1 ± 11 m/s
speed of sound (402.16 K, 3000 kPa, Liquid): 716.5 ± 9.4 m/s
speed of sound (402.48 K, 6000 kPa, Liquid): 750.9 ± 9.8 m/s
speed of sound (402.64 K, 10000 kPa, Liquid): 800.2 ± 10 m/s
speed of sound (402.78 K, 12000 kPa, Liquid): 819.5 ± 11 m/s
speed of sound (412.57 K, 3000 kPa, Liquid): 677.6 ± 8.9 m/s
speed of sound (412.84 K, 6000 kPa, Liquid): 719.3 ± 9.4 m/s
speed of sound (413.07 K, 10000 kPa, Liquid): 766.7 ± 10 m/s
speed of sound (413.22 K, 12000 kPa, Liquid): 791.3 ± 10 m/s
speed of sound (423.95 K, 3000 kPa, Liquid): 636.8 ± 8.4 m/s
speed of sound (424.32 K, 6000 kPa, Liquid): 678.1 ± 8.9 m/s
speed of sound (424.49 K, 10000 kPa, Liquid): 732.1 ± 9.6 m/s
speed of sound (424.59 K, 12000 kPa, Liquid): 756.7 ± 9.9 m/s
speed of sound (434.51 K, 3000 kPa, Liquid): 602.6 ± 7.9 m/s
speed of sound (434.94 K, 6000 kPa, Liquid): 647.4 ± 8.5 m/s
speed of sound (435.26 K, 10000 kPa, Liquid): 701 ± 9.2 m/s
speed of sound (435.36 K, 12000 kPa, Liquid): 726.5 ± 9.5 m/s
speed of sound (443.7 K, 3000 kPa, Liquid): 569.7 ± 7.5 m/s
speed of sound (444 K, 6000 kPa, Liquid): 619.6 ± 8.2 m/s
speed of sound (444.22 K, 10000 kPa, Liquid): 677.1 ± 8.9 m/s
speed of sound (444.36 K, 12000 kPa, Liquid): 700.3 ± 9.2 m/s
speed of sound (452.94 K, 3000 kPa, Liquid): 538.4 ± 7.1 m/s
speed of sound (453.22 K, 6000 kPa, Liquid): 588.3 ± 7.8 m/s
speed of sound (454.37 K, 10000 kPa, Liquid): 648.8 ± 8.5 m/s
speed of sound (455.24 K, 12000 kPa, Liquid): 671.1 ± 8.8 m/s
speed of sound (462.54 K, 3000 kPa, Liquid): 502.1 ± 6.7 m/s
speed of sound (463.04 K, 6000 kPa, Liquid): 558.9 ± 7.4 m/s
speed of sound (463.43 K, 10000 kPa, Liquid): 622.7 ± 8.2 m/s
speed of sound (463.72 K, 12000 kPa, Liquid): 651.6 ± 8.6 m/s
speed of sound (472.45 K, 3000 kPa, Liquid): 464.2 ± 6.3 m/s
speed of sound (472.86 K, 6000 kPa, Liquid): 530.7 ± 7.1 m/s
speed of sound (473.22 K, 10000 kPa, Liquid): 596.3 ± 7.9 m/s
speed of sound (473.48 K, 12000 kPa, Liquid): 627.7 ± 8.3 m/s
speed of sound (483.15 K, 3000 kPa, Liquid): 423.5 ± 5.9 m/s
speed of sound (483.63 K, 6000 kPa, Liquid): 496.7 ± 6.7 m/s
speed of sound (484.05 K, 10000 kPa, Liquid): 569.9 ± 7.5 m/s
speed of sound (484.3 K, 12000 kPa, Liquid): 598.4 ± 7.9 m/s
speed of sound (493.12 K, 3000 kPa, Liquid): 386.4 ± 5.5 m/s
speed of sound (493.56 K, 6000 kPa, Liquid): 464.9 ± 6.3 m/s
speed of sound (494.09 K, 10000 kPa, Liquid): 542.2 ± 7.2 m/s
speed of sound (494.42 K, 12000 kPa, Liquid): 576.5 ± 7.6 m/s
speed of sound (502.8 K, 3000 kPa, Liquid): 350.1 ± 5.1 m/s
speed of sound (503.17 K, 6000 kPa, Liquid): 435.4 ± 6 m/s
speed of sound (503.79 K, 10000 kPa, Liquid): 516.1 ± 6.9 m/s
speed of sound (504.09 K, 12000 kPa, Liquid): 550.4 ± 7.3 m/s
speed of sound (512.41 K, 3000 kPa, Liquid): 311.4 ± 4.8 m/s
speed of sound (513.04 K, 6000 kPa, Liquid): 404 ± 5.7 m/s
speed of sound (513.78 K, 10000 kPa, Liquid): 491.8 ± 6.6 m/s
speed of sound (514.01 K, 12000 kPa, Liquid): 526.6 ± 7 m/s
speed of sound (523.31 K, 3000 kPa, Liquid): 264.5 ± 4.5 m/s
speed of sound (523.97 K, 6000 kPa, Liquid): 371.4 ± 5.4 m/s
speed of sound (524.59 K, 10000 kPa, Liquid): 463 ± 6.3 m/s
speed of sound (524.7 K, 12000 kPa, Liquid): 501.3 ± 6.7 m/s
speed of sound (543.28 K, 3000 kPa, Fluid (supercritical or subcritical phases)): 159 ± 6.4 m/s
speed of sound (543.47 K, 4000 kPa, Fluid (supercritical or subcritical phases)): 233.1 ± 5.8 m/s
speed of sound (543.63 K, 5000 kPa, Fluid (supercritical or subcritical phases)): 282.2 ± 4.9 m/s
